Reference: ChEMBL document CHEMBL2150910, “Initial Optimization of a New Series of γ-Secretase Modulators Derived from a Triterpene Glycoside” (ACS Med Chem Lett, 2012)

Legend:
[1] = Inhibition of gamma-secretase-mediated amyloid beta-42 production in diluted 2B7 conditioned media after 5 hrs
[2] = Inhibition of gamma-secretase-mediated amyloid beta-40 production in diluted 2B7 conditioned media after 5 hrs

| Structure (SMILES) | IC50 [1] [µM] | IC50 [2] [µM] |
| --- | --- | --- |
| C[C@@H]1C[C@H]([C@H](O)C(C)(C)O)O[C@H]2[C@H]1[C@@]1(C)CC[C@@]34C[C@@]35CC[C@H](O[C@@H]3OC[C@@H](O)[C@H](O)[C@H]3O)C(C)(C)[C@@H]5CC[C@H]4[C@]1(C)[C@H]2O | 3.1 |  |
| CC(=O)O[C@@H]([C@H]1C[C@@H](C)[C@H]2[C@H](O1)[C@H](O)[C@@]1(C)[C@@H]3CC[C@H]4C(C)(C)[C@@H](O[C@H]5CN(C(C)=O)CCO5)CC[C@@]45C[C@@]35CC[C@]21C)C(C)(C)O | 0.09 | 13.4 |
| CC(=O)O[C@@H]([C@H]1C[C@@H](C)[C@H]2[C@H](O1)[C@H](O)[C@@]1(C)[C@@H]3CC[C@H]4C(C)(C)[C@@H](O[C@H]5CN(CC(=O)O)CCO5)CC[C@@]45C[C@@]35CC[C@]21C)C(C)(C)O | 0.37 | 14 |
| C[C@@H]1C[C@H]([C@H](O)C(C)(C)O)O[C@H]2[C@H]1[C@@]1(C)CC[C@@]34C[C@@]35CC[C@H](O)C(C)(C)[C@@H]5CC[C@H]4[C@]1(C)[C@H]2O | > 10 |  |
| CC(=O)O[C@@H]([C@H]1C[C@@H](C)[C@H]2[C@H](O1)[C@H](O)[C@@]1(C)[C@@H]3CC[C@H]4C(C)(C)[C@@H](O[C@H]5CN(CC(N)=O)CCO5)CC[C@@]45C[C@@]35CC[C@]21C)C(C)(C)O | 0.15 | 7.8 |
| CC(=O)O[C@@H]([C@H]1C[C@@H](C)[C@H]2[C@H](O1)[C@H](O)[C@@]1(C)[C@@H]3CC[C@H]4C(C)(C)[C@@H](O[C@@H](CN(C)C)OCCN(C)C)CC[C@@]45C[C@@]35CC[C@]21C)C(C)(C)O | 2.4 |  |
| CC(=O)O[C@@H]([C@H]1C[C@@H](C)[C@H]2[C@H](O1)[C@H](O)[C@@]1(C)[C@@H]3CC[C@H]4C(C)(C)[C@@H](O[C@H]5CN([C@H]6CCNC6=O)CCO5)CC[C@@]45C[C@@]35CC[C@]21C)C(C)(C)O | 0.2 | 7 |
| CC(=O)OC(C)(C)[C@H]1O[C@@]23O[C@@H]1C[C@@H](C)C2[C@@]1(C)CC[C@@]24C[C@@]25CC[C@H](O[C@@H]2OC[C@@H](O)[C@H](O)[C@H]2O)C(C)(C)[C@@H]5CC[C@H]4[C@]1(C)[C@H]3O (stereo partly specified) | 3 |  |
| CC(=O)O[C@@H]([C@H]1C[C@@H](C)[C@H]2[C@H](O1)[C@H](O)[C@@]1(C)[C@@H]3CC[C@H]4C(C)(C)[C@@H](O[C@H]5CN(C(=O)c6ccno6)CCO5)CC[C@@]45C[C@@]35CC[C@]21C)C(C)(C)O | 0.07 | 4.8 |
| CC(=O)O[C@@H]([C@H]1C[C@@H](C)[C@H]2[C@H](O1)[C@H](O)[C@@]1(C)[C@@H]3CC[C@H]4C(C)(C)[C@@H](O)CC[C@@]45C[C@@]35CC[C@]21C)C(C)(C)O | 0.6 |  |
| CC(=O)O[C@@H]([C@H]1C[C@@H](C)[C@H]2[C@H](O1)[C@H](O)[C@@]1(C)[C@@H]3CC[C@H]4C(C)(C)[C@@H](O[C@H]5CN(CC(=O)N(C)C)CCO5)CC[C@@]45C[C@@]35CC[C@]21C)C(C)(C)O | 0.14 | 9 |
| CCCN1CCO[C@@H](O[C@H]2CC[C@]34C[C@]35CC[C@]3(C)[C@@H]6[C@H](O[C@@H]([C@H](OC(C)=O)C(C)(C)O)C[C@H]6C)[C@H](O)[C@@]3(C)[C@@H]5CC[C@H]4C2(C)C)C1 | 0.68 | 15.9 |
| CC(=O)O[C@@H]([C@H]1C[C@@H](C)[C@H]2[C@H](O1)C(=O)[C@@]1(C)[C@@H]3CC[C@H]4C(C)(C)[C@@H](O[C@@H]5OC[C@@H](O)[C@H](O)[C@H]5O)CC[C@@]45C[C@@]35CC[C@]21C)C(C)(C)O | 0.6 |  |
| CC(=O)O[C@@H]([C@H]1C[C@@H](C)[C@H]2[C@H](O1)[C@H](O)[C@@]1(C)[C@@H]3CC[C@H]4C(C)(C)[C@@H](O[C@@H](CO)OCCO)CC[C@@]45C[C@@]35CC[C@]21C)C(C)(C)O | 0.1 |  |
